According to patent US9834571B2, “Compounds for inhibiting cell proliferation in EGFR-driven cancers” (ARIAD Pharmaceuticals, Inc., priority 2012, dated 2017):

Experiments:
[1] = molecular target: EGFR L858R/T790M (Homo sapiens, UniProt P00533, L858R/T790M); experiment: Kinase inhibitory activity against EGFR bearing the L858R/T790M double mutation; format: biochemical; details: EGFR L858R/T790M double mutation; 10 μM ATP; read-out: IC50 for kinase inhibition, EGFR L858R T790M
In short: (§1)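 ATP was held at 10 μM while inhibition was measured across a 10-point series capped at 3 μM, single replicates.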

[2] = molecular target: human EGFR (native sequence) (Homo sapiens, UniProt P00533); experiment: Kinase inhibitory activity against human EGFR (native sequence); format: biochemical; details: human EGFR native sequence; 10 μM ATP; read-out: IC50 for kinase inhibition, EGFR
In short: as §1

[3] = test system: BaF3 cells expressing wildtype EGFR; experiment: Antiproliferative activity (MTT) against control BaF3 cells expressing wildtype EGFR; format: cell-based; details: Mus musculus, BAF3 PARENTAL cells (control)
In short: (§2)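 Compounds were tested on BaF3 cells bearing target EGFR mutations and on control BaF3 cells with wildtype EGFR; viability was then determined by MTT.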

[4] = molecular target: T1, BaF3 cells expressing the target EGFR mutations (Homo sapiens, UniProt P00533, T790M/L858R, cells depend on it); experiment: Antiproliferative activity (MTT) against BaF3 cells expressing the target EGFR mutations; format: cell-based; details: BAF3 EGFR L858R-T790M PURO POOL cells, read-out: IC50, BAF3 EGFR L858R-T790M PURO POOL
T1 construct: IC50, BAF3 EGFR L858R-T790M PURO POOL; other: BAF3 EGFR L858R-T790M PURO POOL cells, MTT; IC50, BAF3 EGFR L858R-T790M PURO POOL; other: BAF3 EGFR L858R-T790M PURO POOL cells; MTT
In short: as §2

[5] = molecular target: T2, BaF3 cells expressing the target EGFR mutations (Homo sapiens, UniProt P00533, T790M, cells depend on it, form not given); experiment: as above; format: cell-based; details: BAF3 EGFR DEL T790M PURO POOL cells, read-out: IC50, BAF3 EGFR DEL T790M PURO POOL
T2 construct: IC50, BAF3 EGFR DEL T790M PURO POOL; other: BAF3 EGFR DEL T790M PURO POOL cells, MTT; other: BAF3 EGFR DEL T790M PURO POOL cells; MTT
In short: as §2

[6] = molecular target: EGFR L858R (Homo sapiens, UniProt P00533, L858R); experiment: Kinase inhibitory activity against EGFR bearing the L858R mutation; format: biochemical; details: EGFR L858R; 10 μM ATP; read-out: IC50 for kinase inhibition, EGFR L858R
In short: as §1

T1 sequence (P00533 whole entry T790M/L858R): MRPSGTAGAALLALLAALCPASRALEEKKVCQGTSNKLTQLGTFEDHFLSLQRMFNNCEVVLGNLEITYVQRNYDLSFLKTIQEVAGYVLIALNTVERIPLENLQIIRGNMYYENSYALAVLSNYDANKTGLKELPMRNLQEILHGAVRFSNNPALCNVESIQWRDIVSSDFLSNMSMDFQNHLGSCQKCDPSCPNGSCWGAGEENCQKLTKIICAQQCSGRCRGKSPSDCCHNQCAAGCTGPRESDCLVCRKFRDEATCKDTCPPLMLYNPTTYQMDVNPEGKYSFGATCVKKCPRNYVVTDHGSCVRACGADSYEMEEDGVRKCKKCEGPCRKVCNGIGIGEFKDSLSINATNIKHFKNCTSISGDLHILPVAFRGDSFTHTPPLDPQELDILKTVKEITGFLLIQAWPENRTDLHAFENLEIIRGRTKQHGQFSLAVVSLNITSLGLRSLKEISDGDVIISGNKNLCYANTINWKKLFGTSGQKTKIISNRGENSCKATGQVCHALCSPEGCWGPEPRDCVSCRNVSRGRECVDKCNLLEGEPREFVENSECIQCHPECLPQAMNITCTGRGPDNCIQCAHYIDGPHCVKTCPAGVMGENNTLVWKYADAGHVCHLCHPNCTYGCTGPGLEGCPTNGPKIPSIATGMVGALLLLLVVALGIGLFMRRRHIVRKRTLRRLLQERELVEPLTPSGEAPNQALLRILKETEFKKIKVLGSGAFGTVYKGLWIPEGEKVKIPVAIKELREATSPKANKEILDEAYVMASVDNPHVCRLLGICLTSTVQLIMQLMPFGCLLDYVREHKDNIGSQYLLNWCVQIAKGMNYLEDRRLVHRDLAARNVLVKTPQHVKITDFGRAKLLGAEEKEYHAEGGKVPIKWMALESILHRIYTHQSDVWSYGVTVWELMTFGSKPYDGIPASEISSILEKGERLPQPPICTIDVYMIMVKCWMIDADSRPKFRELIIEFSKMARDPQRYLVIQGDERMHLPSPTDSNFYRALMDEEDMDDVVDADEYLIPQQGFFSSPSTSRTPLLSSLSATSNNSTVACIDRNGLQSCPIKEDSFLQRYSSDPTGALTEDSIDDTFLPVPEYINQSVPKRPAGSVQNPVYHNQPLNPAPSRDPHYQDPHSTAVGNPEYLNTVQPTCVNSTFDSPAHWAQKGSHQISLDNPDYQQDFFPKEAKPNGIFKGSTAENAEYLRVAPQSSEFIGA
T2 sequence (P00533 with tags, fused parts or gaps DEL746-750/T790M, form open): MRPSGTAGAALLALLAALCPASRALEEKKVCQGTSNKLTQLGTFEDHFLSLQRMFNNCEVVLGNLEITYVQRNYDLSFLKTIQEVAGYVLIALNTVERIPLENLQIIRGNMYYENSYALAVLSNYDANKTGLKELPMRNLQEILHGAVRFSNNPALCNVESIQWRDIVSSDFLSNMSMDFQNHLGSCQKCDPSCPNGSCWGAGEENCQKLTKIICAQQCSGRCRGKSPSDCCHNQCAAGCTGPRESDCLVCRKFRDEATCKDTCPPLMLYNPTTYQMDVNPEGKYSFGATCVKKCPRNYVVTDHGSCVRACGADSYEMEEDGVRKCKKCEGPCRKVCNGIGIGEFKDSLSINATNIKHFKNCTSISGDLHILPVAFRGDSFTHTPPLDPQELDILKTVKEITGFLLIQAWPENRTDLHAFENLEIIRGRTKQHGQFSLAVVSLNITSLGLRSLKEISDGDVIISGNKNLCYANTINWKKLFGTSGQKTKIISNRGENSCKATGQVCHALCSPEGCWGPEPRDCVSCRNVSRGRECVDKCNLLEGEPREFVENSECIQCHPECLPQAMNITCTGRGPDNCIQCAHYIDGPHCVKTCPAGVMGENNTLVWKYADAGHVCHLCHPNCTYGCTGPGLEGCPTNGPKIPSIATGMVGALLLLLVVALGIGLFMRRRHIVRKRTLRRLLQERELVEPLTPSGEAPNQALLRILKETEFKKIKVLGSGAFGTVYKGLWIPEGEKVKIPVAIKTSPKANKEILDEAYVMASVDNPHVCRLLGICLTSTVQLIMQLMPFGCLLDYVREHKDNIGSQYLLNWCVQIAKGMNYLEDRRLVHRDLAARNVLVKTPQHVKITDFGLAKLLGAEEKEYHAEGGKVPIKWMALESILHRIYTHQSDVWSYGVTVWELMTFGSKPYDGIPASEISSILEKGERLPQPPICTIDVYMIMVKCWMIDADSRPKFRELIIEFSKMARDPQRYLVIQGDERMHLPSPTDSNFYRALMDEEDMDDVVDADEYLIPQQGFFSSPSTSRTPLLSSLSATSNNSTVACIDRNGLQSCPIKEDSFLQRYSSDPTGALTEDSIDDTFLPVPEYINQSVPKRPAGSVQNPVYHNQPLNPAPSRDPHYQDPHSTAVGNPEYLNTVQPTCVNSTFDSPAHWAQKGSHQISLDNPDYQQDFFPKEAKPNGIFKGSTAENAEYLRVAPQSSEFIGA
EGFR L858R, sequence (P00533 25-1210 L858R): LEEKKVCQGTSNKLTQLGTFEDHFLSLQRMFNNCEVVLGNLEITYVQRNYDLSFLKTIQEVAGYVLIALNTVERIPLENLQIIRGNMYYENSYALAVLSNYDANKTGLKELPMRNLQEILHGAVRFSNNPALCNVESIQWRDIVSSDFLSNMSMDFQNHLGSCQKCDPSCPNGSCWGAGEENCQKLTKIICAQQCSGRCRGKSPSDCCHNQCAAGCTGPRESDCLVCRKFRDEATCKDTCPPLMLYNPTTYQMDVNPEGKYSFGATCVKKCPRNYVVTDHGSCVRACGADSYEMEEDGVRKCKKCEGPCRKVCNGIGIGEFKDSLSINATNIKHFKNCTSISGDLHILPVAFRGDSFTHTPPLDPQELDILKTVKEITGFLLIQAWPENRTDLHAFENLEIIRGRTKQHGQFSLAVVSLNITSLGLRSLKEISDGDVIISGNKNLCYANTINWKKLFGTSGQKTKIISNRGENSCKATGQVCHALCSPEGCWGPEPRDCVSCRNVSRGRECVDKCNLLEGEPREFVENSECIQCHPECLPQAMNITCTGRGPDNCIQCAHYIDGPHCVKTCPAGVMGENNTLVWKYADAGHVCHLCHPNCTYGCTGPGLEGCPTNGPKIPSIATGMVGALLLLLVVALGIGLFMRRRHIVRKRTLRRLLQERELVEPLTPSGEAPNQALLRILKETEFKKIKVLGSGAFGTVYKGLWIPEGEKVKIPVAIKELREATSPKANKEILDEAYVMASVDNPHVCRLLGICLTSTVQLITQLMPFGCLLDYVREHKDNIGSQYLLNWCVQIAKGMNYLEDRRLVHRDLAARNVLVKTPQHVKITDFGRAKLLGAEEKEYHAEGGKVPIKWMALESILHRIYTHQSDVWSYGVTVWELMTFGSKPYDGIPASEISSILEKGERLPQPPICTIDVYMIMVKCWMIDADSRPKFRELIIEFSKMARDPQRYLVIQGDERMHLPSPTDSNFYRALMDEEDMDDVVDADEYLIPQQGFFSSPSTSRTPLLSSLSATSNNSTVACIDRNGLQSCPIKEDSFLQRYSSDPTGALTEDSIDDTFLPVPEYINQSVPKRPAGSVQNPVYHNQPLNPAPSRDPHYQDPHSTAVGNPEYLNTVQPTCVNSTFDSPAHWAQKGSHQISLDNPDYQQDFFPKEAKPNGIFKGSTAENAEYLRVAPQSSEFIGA
human EGFR (native sequence), sequence (P00533 25-1210): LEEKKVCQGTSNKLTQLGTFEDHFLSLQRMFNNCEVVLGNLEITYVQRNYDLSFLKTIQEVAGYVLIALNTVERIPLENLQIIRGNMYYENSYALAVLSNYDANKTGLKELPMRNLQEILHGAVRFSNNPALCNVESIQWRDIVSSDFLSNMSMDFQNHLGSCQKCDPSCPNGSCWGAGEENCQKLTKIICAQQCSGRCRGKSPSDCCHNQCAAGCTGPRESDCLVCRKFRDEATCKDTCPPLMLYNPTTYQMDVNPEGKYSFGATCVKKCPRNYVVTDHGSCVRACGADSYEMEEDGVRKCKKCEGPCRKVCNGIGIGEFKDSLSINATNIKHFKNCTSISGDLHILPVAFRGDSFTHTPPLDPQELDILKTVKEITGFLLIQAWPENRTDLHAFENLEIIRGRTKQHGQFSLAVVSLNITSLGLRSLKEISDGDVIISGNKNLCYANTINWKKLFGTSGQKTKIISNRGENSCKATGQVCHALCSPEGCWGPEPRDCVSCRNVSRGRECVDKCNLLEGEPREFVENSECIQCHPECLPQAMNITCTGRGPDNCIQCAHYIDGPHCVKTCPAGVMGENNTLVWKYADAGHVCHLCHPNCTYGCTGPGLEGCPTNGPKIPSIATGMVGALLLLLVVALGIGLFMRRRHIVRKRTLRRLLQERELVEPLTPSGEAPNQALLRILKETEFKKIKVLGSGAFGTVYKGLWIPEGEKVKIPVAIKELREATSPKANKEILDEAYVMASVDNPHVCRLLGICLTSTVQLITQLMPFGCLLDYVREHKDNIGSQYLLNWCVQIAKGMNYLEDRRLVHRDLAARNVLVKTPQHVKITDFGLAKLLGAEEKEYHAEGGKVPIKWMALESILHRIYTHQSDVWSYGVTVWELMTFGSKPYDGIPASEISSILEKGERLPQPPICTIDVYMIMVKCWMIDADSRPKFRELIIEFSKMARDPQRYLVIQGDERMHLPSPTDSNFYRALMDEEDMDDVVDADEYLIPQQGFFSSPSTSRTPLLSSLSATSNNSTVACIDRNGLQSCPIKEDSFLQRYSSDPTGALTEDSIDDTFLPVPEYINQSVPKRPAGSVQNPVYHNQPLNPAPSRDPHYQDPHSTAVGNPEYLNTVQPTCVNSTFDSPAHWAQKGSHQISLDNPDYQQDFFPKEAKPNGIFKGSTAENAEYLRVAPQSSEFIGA

Row | SMILES | IC50 [1] [nM] | IC50 [2] [nM] | IC50 [3] [nM] | GI50 [4] [nM] | GI50 [5] [nM] | IC50 [6] [nM]
1 | COc1ccc(NC(=O)C#CC(C)(C)N2CCCC2)cc1Nc1ncc(Cl)c(Nc2ccccc2P(C)(C)=O)n1 [Example 91, N-(3-((5-chloro-4-((2-(dimethylphosphoryl)phenyl)amino)pyrimidin-2-yl)amino)-4-methoxyphenyl)-4-methyl-4-(pyrrolidin-1-yl)pent-2-ynamide] | < 50 | < 50 | ≥ 250 | < 50 | < 50 | < 50
2 | COc1ccc(NC(=O)/C=C/CN2CCCCC2)cc1Nc1ncc(Cl)c(Nc2ccccc2P(C)(C)=O)n1 [Example 92, (E)—N-(3-((5-chloro-4-((2-(dimethylphosphoryl)phenyl)amino)pyrimidin-2-yl)amino)-4-methoxyphenyl)-4-(piperidin-1-yl)but-2-enamide] | < 50 | < 50 | ≥ 250 | < 50 | < 50 | < 50
3 | COc1ccc(NC(=O)C#Cc2ccccc2)cc1Nc1ncc(Cl)c(Nc2ccccc2P(C)(C)=O)n1 [Example 93, N-(3-((5-chloro-4-((2-(dimethylphosphoryl)phenyl)amino)pyrimidin-2-yl)amino)-4-methoxyphenyl)-3-phenylpropiolamide] | < 50 | ≥ 250 | ≥ 250 | < 50 | < 50 | < 50
4 | COc1ccc(NC(=O)/C=C/C2(N)CC2)cc1Nc1ncc(Cl)c(Nc2ccccc2P(C)(C)=O)n1 [Example 94, (E)-3-(1-aminocyclopropyl)-N-(3-((5-chloro-4-((2-(dimethylphosphoryl)phenyl)amino)pyrimidin-2-yl)amino)-4-methoxyphenyl)acrylamide] | < 50 | 101 to 250 | ≥ 250 | ≥ 250 | ≥ 250 | < 50
5 | COc1ccc(NC(=O)/C=C/CN2CCCC2)cc1Nc1ncc(Cl)c(Nc2ccccc2P(C)(C)=O)n1 [Example 95, (E)—N-(3-((5-chloro-4-((2-(dimethylphosphoryl)phenyl)amino)pyrimidin-2-yl)amino)-4-methoxyphenyl)-4-(pyrrolidin-1-yl)but-2-enamide] | < 50 | ≥ 250 | ≥ 250 | ≥ 250 | 50 to 100 | < 50
6 | C=CC(=O)Nc1cc(Nc2ncc(Cl)c(Nc3ccccc3P(C)(C)=O)n2)c(OC)cc1C#CCN(CC)CC [Example 96, N-(5-((5-chloro-4-((2-(dimethylphosphoryl)phenyl)amino)pyrimidin-2-yl)amino)-2-(3-(diethylamino)prop-1-yn-1-yl)-4-methoxyphenyl)acrylamide] | < 50 | ≥ 250 | ≥ 250 | < 50 | < 50 | < 50
7 | COCC#CC(=O)Nc1ccc(OC)c(Nc2ncc(Cl)c(Nc3ccccc3P(C)(C)=O)n2)c1 [Example 97, N-(3-((5-chloro-4-((2-(dimethylphosphoryl)phenyl)amino)pyrimidin-2-yl)amino)-4-methoxyphenyl)-4-methoxybut-2-ynamide] | < 50 | < 50 | ≥ 250 | < 50 | < 50 | < 50
8 | C=CC(=O)Nc1cc(Nc2ncc(Cl)c(Nc3ccc(OCCN4CCCC4)cc3P(C)(C)=O)n2)c(OC)cc1F [Example 98, N-(5-((5-chloro-4-((2-(dimethylphosphoryl)-4-(2-(pyrrolidin-1-yl)ethoxy)phenyl)amino)pyrimidin-2-yl)amino)-2-fluoro-4-methoxyphenyl)acrylamide] | < 50 | < 50 | ≥ 250 | < 50 | < 50 | < 50
